Data from US8846951B2 (AbbVie Inc., priority 2009, dated 2014).
Where two headings read alike, the source gives them in different places.

Experiments:
5HT2B receptors = target: T1, 5HT2B receptors (Homo sapiens, UniProt P41595); experiment: Human 5-HT2B functional high throughput screening assay in CHO-K1 cells (calcium flux); assay type: cell-based; conditions: for EC50: CHO-K1 cells, calcium flux
T1 construct: expressed in transfected cells; host or cells: CHO-K1 cells
In short: (§1)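 Serum-starved CHO-K1 cells carrying the receptor; Ca4 dye, 60 min RT. Test compound added after a 10 s baseline, fluorescence followed for 3 min. EC50 from 4-parameter fit; Emax given as % of serotonin effect.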

5HT2C receptors = target: T2, 5HT2C receptors (Homo sapiens, UniProt P28335); experiment: Human 5-HT2C functional high throughput screening assay in CHO-K1 cells (calcium flux); assay type: cell-based; set-up: expressed in transfected cells; host or cells: CHO-K1 cells; conditions: for EC50: CHO-K1 cells, calcium flux; for Emax: 5-HT2C, maximum functional response as percentage relative to the effect of serotonin
T2 sequence (P28335 33-458): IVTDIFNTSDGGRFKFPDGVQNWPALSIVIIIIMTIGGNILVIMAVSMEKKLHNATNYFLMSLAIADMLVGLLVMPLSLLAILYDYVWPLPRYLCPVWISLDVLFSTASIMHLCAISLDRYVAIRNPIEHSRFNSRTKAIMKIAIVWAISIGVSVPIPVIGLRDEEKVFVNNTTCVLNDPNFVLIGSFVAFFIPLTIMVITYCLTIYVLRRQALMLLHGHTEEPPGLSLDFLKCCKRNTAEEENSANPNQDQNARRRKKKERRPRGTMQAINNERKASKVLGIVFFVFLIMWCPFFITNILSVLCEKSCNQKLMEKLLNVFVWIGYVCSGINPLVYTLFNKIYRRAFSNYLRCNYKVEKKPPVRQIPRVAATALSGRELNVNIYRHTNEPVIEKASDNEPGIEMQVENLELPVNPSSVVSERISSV
In short: as §1

[1] = 5-HT2B agonist activity, read-out: EC50
[2] = 5-HT2B, maximum functional response as percentage relative to the effect of serotonin
[3] = 5-HT2C agonist activity, read-out: EC50

T1 sequence (P41595 whole entry): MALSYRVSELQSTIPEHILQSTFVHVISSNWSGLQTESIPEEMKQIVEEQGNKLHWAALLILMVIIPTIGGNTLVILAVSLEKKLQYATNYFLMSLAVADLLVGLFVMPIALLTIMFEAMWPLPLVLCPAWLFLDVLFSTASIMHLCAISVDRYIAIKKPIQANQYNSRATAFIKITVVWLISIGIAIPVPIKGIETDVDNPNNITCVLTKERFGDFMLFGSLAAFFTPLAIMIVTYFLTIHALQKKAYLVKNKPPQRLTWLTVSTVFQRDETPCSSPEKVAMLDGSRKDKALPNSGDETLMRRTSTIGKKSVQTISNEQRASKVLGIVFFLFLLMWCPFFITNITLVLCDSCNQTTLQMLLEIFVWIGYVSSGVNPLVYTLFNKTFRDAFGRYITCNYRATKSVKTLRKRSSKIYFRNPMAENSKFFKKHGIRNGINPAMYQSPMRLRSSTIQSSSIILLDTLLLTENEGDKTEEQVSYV

Row | Compound | EC50 (5HT2B receptors; [1]) | Emax (5HT2B receptors; [2]) | EC50 (5HT2C receptors; [3]) | Emax (5HT2C receptors; CHO-K1, read-out: Emax) | Emax (5HT2B receptors; CHO-K1, 5-HT2B, maximum functional response as percentage relative to the effect of serotonin, read-out: Emax) | Emax (5HT2B receptors; CHO-K1) | EC50 (5HT2B receptors; EC50, 5-HT2B agonist activity) | Emax (5HT2C receptors; CHO-K1) | EC50 (5HT2C receptors; EC50, 5-HT2C agonist activity) | Emax (5HT2C receptors)
1 | CN1C[C@H]2CNC(=O)c3cc(C(=O)NCCc4ccccc4)ccc3[C@@H]2C1 (relative stereo) [Example 126, Trans-2-methyl-6-oxo-N-phenethyl-1,2,3,3a,4,5,6,10b-octahydrobenzo[e]pyrrolo[3,4-c]azepine-8-carboxamide] | > 10000 nM | inactive | 6000 nM | 60% |  |  |  |  |  | 
2 | CN1C[C@H]2CNC(=O)c3cc(-c4cccc(C=O)c4)ccc3[C@@H]2C1 (relative stereo) [Example 198, Trans-3-(2-methyl-6-oxo-1,2,3,3a,4,5,6,10b-octahydrobenzo[e]pyrrolo[3,4-c]azepin-8-yl)benzaldehyde] | > 10000 nM | inactive | 9 nM | > 120% |  |  |  |  |  | 
3 | O=C1NC[C@@H]2CN(Cc3ccccc3)C[C@H]2c2ccc(-c3ccc(F)cc3)cc21 (relative stereo) [Example 218, Trans-2-benzyl-8-(4-fluorophenyl)-1,2,3,3a,4,5-hexahydrobenzo[e]pyrrolo[3,4-c]azepin-6(10bH)-one] | > 10000 nM | inactive | 40 nM | > 120% |  |  |  |  |  | 
4 | COc1ccc(OC)c(S(=O)(=O)N2Cc3cccnc3[C@@H]3CNC[C@H]3C2)c1 (relative stereo) [Example 343, Trans-6-[(2,5-dimethoxyphenyl)sulfonyl]-5,6,7,7a,8,9,10,10a-octahydropyrido[3,2-c]pyrrolo[3,4-e]azepine] | 1000 nM |  | 300 nM | 85% | 60% |  |  |  |  | 
5 | CN1C[C@@H]2CN(C)C(=O)c3cc(F)ccc3[C@H]2C1 [Example 163, (3aR,10bS)-8-Fluoro-2,5-dimethyl-1,2,3,3a,4,5-hexahydrobenzo[e]pyrrolo[3,4-c]azepin-6(10bH)-one] |  |  |  |  |  | 20% | 800 nM | > 120% | 60 nM | 
6 | Clc1cccc2c1OCC[C@H]1CNC[C@@H]21 (relative stereo) [Example 295, Cis-7-chloro-2,3,3a,4,5,10b-hexahydro-1H-[1]benzoxepino[4,5-c]pyrrole] |  |  |  |  |  | 40% | 60 nM | 100% | 10 nM | 
7 | CN1C[C@H]2CNC(=O)c3cc(-c4cccc(C#N)c4)ccc3[C@@H]2C1 (relative stereo) [Example 240, 3-(Trans-2-methyl-6-oxo-1,2,3,3a,4,5,6,10b-octahydrobenzo[c]pyrrolo[3,4-e]azepin-8-yl)benzonitrile] | > 10000 nM | inactive | 10 nM | > 120% |  |  |  |  |  | 
8 | O=C1NC[C@@H]2CNC[C@H]2c2sccc21 (relative stereo) [Example 104, Trans-6,6a,7,8,9,9a-hexahydropyrrolo[3,4-e]thieno[3,2-c]azepin-4(5H)-one] | > 10000 nM | inactive | 900 nM |  |  |  |  | > 120% |  | 
9 | COc1ccc2c(c1)C(=O)NC[C@@H]1CN(Cc3ccccc3)C[C@H]21 (relative stereo) [Example 130, Cis-2-benzyl-8-methoxy-1,2,3,3a,4,5-hexahydrobenzo[e]pyrrolo[3,4-c]azepin-6(10bH)-one] | > 10000 nM | inactive | 900 nM | 100% |  |  |  |  |  | 
10 | C=C(c1ccc2c(c1)C(=O)NC[C@@H]1CN(C)C[C@@H]21)C(F)(F)F (relative stereo) [Example 202, Trans-2-methyl-8-(3,3,3-trifluoroprop-1-en-2-yl)-1,2,3,3a,4,5-hexahydrobenzo[e]pyrrolo[3,4-c]azepin-6(10bH)-one] | > 10000 nM | inactive | 400 nM |  |  |  |  | 80% |  | 
11 | O=C1NC[C@@H]2CNC[C@H]2c2ccc(OCCc3cccc(F)c3)cc21 (relative stereo) [Example 124, Trans-8-(3-fluorophenethoxy)-1,2,3,3a,4,5-hexahydrobenzo[e]pyrrolo[3,4-c]azepin-6(10bH)-one] | > 10000 nM | inactive | 20 nM | > 120% |  |  |  |  |  | 
12 | c1ccc(CN2CC[C@@H]3CNC[C@H]3c3ccccc32)cc1 (relative stereo) [Example 329, Trans-6-benzyl-1,2,3,3a,4,5,6,10b-octahydropyrrolo[3,4-d][1]benzazepine] | 2000 nM |  | 1000 nM |  |  | 15% |  | 70% |  | 
13 | COc1cccc2c1[C@H]1CNC[C@@H]1CCO2 (relative stereo) [Example 272, Trans-10-methoxy-2,3,3a,4,5,10b-hexahydro-1H-[1]benzoxepino[4,5-c]pyrrole] |  |  |  |  |  | 20% | 200 nM | > 120% | 7 nM | 
14 | CN1C[C@H]2CNC(=O)c3cc(C(=O)N4CCCCC4)ccc3[C@@H]2C1 (relative stereo) [Example 122, Trans-2-methyl-8-(piperidine-1-carbonyl)-1,2,3,3a,4,5-hexahydrobenzo[e]pyrrolo[3,4-c]azepin-6(10bH)-one] | > 10000 nM | inactive | 6000 nM | 100% |  |  |  |  |  | 
15 | O=C1NC[C@@H]2CNC[C@H]2c2ccc(C3=CCOCC3)cc21 (relative stereo) [Example 241, Trans-8-(3,6-dihydro-2H-pyran-4-yl)-1,2,3,3a,4,5-hexahydrobenzo[c]pyrrolo[3,4-e]azepin-6(10bH)-one] | > 10000 nM | inactive | 7 nM | > 120% |  |  |  |  |  | 
16 | Trans-8-(2-methoxyphenethoxy)-2-methyl-1,2,3,3a,4,5-hexahydrobenzo[e]pyrrolo[3,4-c]azepin-6(10bH)-one [Example 183] | > 10000 nM | inactive | 40 nM |  |  |  |  |  |  | 65%
17 | CN1C[C@H]2CNC(=O)c3cc(-c4ccc5c(c4)C(=O)CCO5)ccc3[C@@H]2C1 (relative stereo) [Example 390, Trans-2-methyl-8-(4-oxo-3,4-dihydro-2H-chromen-6-yl)-2,3,3a,4,5,10b-hexahydropyrrolo[3,4-d][2]benzazepin-6(1H)-one] | > 10000 nM | inactive | 8 nM | 90% |  |  |  |  |  | 
18 | COc1cccc2c1OCC[C@H]1CNC[C@H]21 (relative stereo) [Example 372, Trans-7-methoxy-2,3,3a,4,5,10b-hexahydro-1H-[1]benzoxepino[4,5-c]pyrrole] | 200 nM |  | 1000 nM |  |  | 25% |  | 70% |  | 
19 | Cc1ccc(-c2ccc3c(c2)C(=O)NC[C@@H]2CN(C)C[C@@H]32)o1 (relative stereo) [Example 203, Trans-2-methyl-8-(5-methylfuran-2-yl)-1,2,3,3a,4,5-hexahydrobenzo[e]pyrrolo[3,4-c]azepin-6(10bH)-one] | > 10000 nM | inactive | 6 nM | > 120% |  |  |  |  |  | 
20 | COc1ccc(F)cc1-c1ccc2c(c1)C(=O)NC[C@@H]1CN(C)C[C@@H]21 (relative stereo) [Example 300, Trans-8-(5-fluoro-2-methoxyphenyl)-2-methyl-2,3,3a,4,5,10b-hexahydropyrrolo[3,4-d][2]benzazepin-6(1H)-one] | > 10000 nM | inactive | 50 nM | 100% |  |  |  |  |  | 
21 | c1cnc2c(c1)[C@@H]1CNC[C@H]1CCO2 (relative stereo) [Example 264, Trans-2,3,3a,4,5,10b-hexahydro-1H-pyrrolo[3′,4′:4,5]oxepino[2,3-b]pyridine] | 3000 nM |  | 1000 nM |  |  | 20% |  | > 120% |  | 
22 | O=S(=O)(c1ccc(Cl)cc1)N1Cc2cccnc2[C@@H]2CNC[C@H]2C1 (relative stereo) [Example 340, Trans-6-[(4-chlorophenyl)sulfonyl]-5,6,7,7a,8,9,10,10a-octahydropyrido[3,2-c]pyrrolo[3,4-e]azepine] |  | inactive |  |  |  |  | > 10000 nM | 90% | 70 nM | 
23 | CC(C)=Cc1ccc2c(c1)C(=O)NC[C@@H]1CN(C)C[C@@H]21 (relative stereo) [Example 197, Trans-2-methyl-8-(2-methylprop-1-enyl)-1,2,3,3a,4,5-hexahydrobenzo[e]pyrrolo[3,4-c]azepin-6(10bH)-one] |  | inactive |  |  |  |  | > 10000 nM | > 120% | 3 nM | 
24 | Cc1cc2c(cc1F)C(=O)NC[C@@H]1CNC[C@H]21 (relative stereo) [Example 279, Cis-8-fluoro-9-methyl-1,2,3,3a,4,5-hexahydrobenzo[c]pyrrolo[3,4-e]azepin-6(10bH)-one] |  |  |  |  |  | 90% | 900 nM | > 120% | 60 nM | 
